We go through twelve molecules from patent US20230158116A1, “USE OF HUMAN AMYLIN ANALOG POLYPEPTIDES FOR PROVIDING SUPERIOR GLYCEMIC CONTROL TO TYPE 1 DIABETICS” (I2O Therapeutics, Inc., priority 2020, published 2023).

Read-outs that look alike come from different tables or passages of the source. Starred links: 1 amine or outer side, 2 acyl side, 3 side chain; linkers in the order of their positions; H or OH if unused. Positions of bridges follow the written chain, without caps; N, C: chain ends. Residues, ends and D or L forms follow the SMILES beside them. Groups on a side chain read outwards from the residue. No end group written: not given here. *: point of attachment. C20 diacid = O=C(O)CCCCCCCCCCCCCCCCCCC(=O)*; γGlu = O=C(O)[C@H](CCC(=O)[*:2])N[*:1]

The conditions of data set [1]: cited from earlier work.
The format of data set [2] is in vivo, rat (male Wistar). Also on record: hypo avoidance index (benefit index; below 70 mg/dL weighted 5× vs over 180 mg/dL): scale not given here; hazard index: time above 180 mg/dL (hyperglycemic) / benefit index: time in range (above 70, below 180 mg/dL): unit not given here. The note with it: for benefit index: time in range (above 70, below 180 mg/dL) / hazard index: time above 180 mg/dL (hyperglycemic) / hypo avoidance index (benefit index; below 70 mg/dL weighted 5× vs over 180 mg/dL): STZ rat, A2 0 μg/kg/day. From the text: Male Wistar rats are implanted intraperitoneally (sensor in abdominal aorta) with an HD-XG continuous glucose monitor (Data Sciences, St Paul, Minn.) (Brockway, Tiesma et al. 2015). This system allows up to 8 weeks of continuous capture of blood glucose concentrations.
Upon recovery from surgery and resumption of normal food intake, capture of glucose readings begins so as to include at least 4 days of non-diabetic record for each rat. To induce insulinopenic (type 1) diabetes, rats are fasted overnight and administered an intravenous dose of streptozotocin (STZ) of 60 mg/kg (Gajdosik, Gajdosikova et al. 1999). Glucose readings from the telemetry system are used to enhance survival post-STZ, by s.c. glucose supplementation in the event of hypoglycemia that often accompanies an initial release of insulin following β-cell toxicity. The telemetry is then used to affirm hyperglycemia (mean plasma glucose >300 mg/dL), and to determine if a second STZ treatment is necessary for rats that are not sufficiently hyperglycemic.
Upon becoming hyperglycemic, animals are treated daily with a sliding-scale of a long-acting insulin (insulin detemir, Levemir NOVO) so as to eliminate urinary ketones, but maintain 5% glycosuria, as determined by daily KETOSTIX and GLUCOSTIX testing, respectively (Young, Crocker et al. 1991).
Animals are assigned to one of 3 cohorts of insulin dosing (n=5/cohort). One cohort is defined as that necessary to attain −ve urinary ketones and +ve urinary glucose, as just described, but not greater than a total dose of 2 U/day. A second cohort is a high insulin dose cohort, 3× greater than cohort 1. A third cohort is one where insulin dose is 50% of that of cohort 1.
(§1) Following at least 1 week of insulin dose stabilization, animals are entered into each of 5 supplemental treatments comprising administration of the long-acting amylin agonist, compound A2, at doses of 1, 3, 10, 30 or 100 μg/day as a single daily injection, in addition to the fixed daily Levemir dose. (Alternatively, these studies could utilize relatively short-acting pramlintide as an amylin analog.) The […] is 32-37 hours in the rat, similar to that of albumin-bound insulin detemir. Daily dosing of each therefore maintains relatively constant concentrations of each, and a relatively ratio of concentrations.
Each dose level of compound A2 is maintained for 1 week, during which glucose data is captured via telemetry. The order in which doses of compound A2 are changed is determined by a 5×5 orthogonal latin square. That is, each animal receives each dose of compound A2, but in an order that is unique relative to that of the other 4 animals in the same insulin cohort. This treatment balances out time-dependent or order-dependent changes in metabolic status of each animal, such as regeneration of insulin secretory capacity, and accommodation to the effects of an amylin agonist.
Plasma glucose values from the final 4 days of each insulin/A2 combination are aggregated and analyzed according to frequency of occurrence (cumulative distributions). Analogous to the time-in-range (TIR) assessment of clinical benefit (sometimes termed “clinical utility”) in human diabetes trials (Beck, Bergenstal et al. 2018), glucose values are categorized within bins (<70, 70-180, and >180 mg/dL). Further cuts (>250 mg/dL) are also made. Parametric descriptors of glucose values are also derived for each combination (mean and SD values, linear and logarithmic, where data are not normal but are log-normal).
Higher benefit (i.e., utility) is indicated when TIR is greatest, with the proviso that values below 70 mg/dL are not more frequent. Higher benefit is also indicated when the SD for the distribution of glucose values is least.

Data set [3] is described as follows: Half-life of compound A2 in the rat. The conditions noted are these: in vivo, read-out: 0% of compound A2 (half-life). How it is done:
as §1

The conditions of data set [4]: in vivo; cited from earlier work.
The conditions of data set [5]: cited from earlier work. The source holds these as a separate data set.

For aspart [Novo's Novolog ® (aspart)], in data set [1] (in vivo), the Duration is 3 to 5 h, the Onset was 10 to 20 min and the Peak was 0.667 to 0.833 h.

On to “velosulin: human insulin for use in an insulin pump, short-acting”, for which, in data set [1] (in vivo), the Duration is 2 to 3 h and the Peak is 1 to 2 h.

In the case of “insulin detemir [Novo's Levemir ® (insulin detemir)]”, in data set [1] (in vivo), the Duration entry is given as “Up to 24 hours”, the Onset is 60 to 120 min and the Peak is 6 to 8 h. In data set [2] (insulin 1 U/day), the “benefit index: time in range (above 70, below 180 mg/dL)” value (“benefit index: time in range” below) came to 39.5; the “hazard index: time above 180 mg/dL (hyperglycemic)” value (“hazard index: time above 180 mg/dL” below) was found to be 60.2; the “hypo avoidance index (benefit index; below 70 mg/dL weighted 5× vs over 180 mg/dL)” value (from here on “hypo avoidance index”) was 33.8. In data set [2] (insulin 2 U/day), the “benefit index: time in range” value is recorded as 64.9; the “hazard index: time above 180 mg/dL” value is 29.4; the “hypo avoidance index” value was 41.6. Besides, in data set [2] (insulin 6 U/day), the “benefit index: time in range” value was 78.9; the “hazard index: time above 180 mg/dL” value amounted to 2.8; the “hypo avoidance index” value was determined as 5.7. The “blood glucose values within range 70-180 mg/dL (TIR)” value in data set [2] (post-STZ rats, 2 U/day Levemir, no A2) stood at 64.9%. Besides, in data set [2] (rat, in vivo), the “blood glucose values <70 mg/dL” value stood at 5.8% and the “proportion of time spent below 70 mg/dL” value is listed as “markedly increase”.

As to aspart [Fiasp ® (aspart)], in data set [1] (in vivo), the Duration is 3 to 5 h and the Peak was 1 to 3 h. Moreover, the “Onset, sooner than Rapid Acting Insulins” value in data set [1] (relative to rapid-acting insulins) is listed as “about 5 mins”.

On to “recombinant insulin [Novo's Novolin ® (recombinant insulin)]”, for which, in data set [1] (in vivo), the Duration is 5 to 8 h and the Peak is 2 to 5 h.

Consider `CC[C@H](C)[C@H](NC(=O)[C@@H]1CCCN1C(=O)CNC(=O)[C@H](Cc1ccccc1)NC(=O)[C@H](CC(N)=O)NC(=O)[C@H](CC(N)=O)NC(=O)[C@H](CO)NC(=O)[C@H](CO)NC(=O)[C@H](CCCCN)NC(=O)[C@H](Cc1c[nH]cn1)NC(=O)[C@H](CC(C)C)NC(=O)[C@H](CCC(=O)O)NC(=O)[C@H](CC(N)=O)NC(=O)[C@H](C)NC(=O)[C@H](CC(C)C)NC(=O)[C@H](CCCNC(=N)N)NC(=O)[C@H](CCC(N)=O)NC(=O)[C@@H](NC(=O)[C@H](C)NC(=O)[C@@H]1CSSC[C@H](NC(=O)[C@@H](N)CCCCNC(=O)CC[C@H](NC(=O)CC[C@H](NC(=O)CCCCCCCCCCCCCCCCCCC(=O)O)C(=O)O)C(=O)O)C(=O)N[C@@H](CC(N)=O)C(=O)N[C@@H]([C@@H](C)O)C(=O)N[C@@H](CO)C(=O)N[C@@H]([C@@H](C)O)C(=O)N1)[C@@H](C)O)C(=O)N[C@@H](CC(C)C)C(=O)N1CCC[C@H]1C(=O)N1CCC[C@H]1C(=O)N[C@H](C(=O)N[C@@H](CCCCN)C(=O)N[C@H](C(=O)NCC(=O)N[C@@H](CO)C(=O)N[C@@H](CCC(=O)O)C(=O)N[C@H](C(=O)N[C@@H](Cc1ccc(O)cc1)C(N)=O)[C@@H](C)O)C(C)C)[C@@H](C)O` [Compound A2] (H-K([γGlu-γGlu-C20 diacid])CNTSTCATQRLANELHKSSNNFGPILPPTKVGSETY-NH2; disulfide 2-7), for which the half-life in data set [3] was in the range of 32 to 37 h.

In the case of insulin glargine, in data set [1] (in vivo), the Duration is 20 to 24 h. Moreover, the Peak result in data set [1] (result in words) was “No peak time”.

For “insulin degludec [Novo's Tresiba ® (insulin degludec)]”, in data set [1] (in vivo), the Duration was 42 h and the Onset is 30 to 90 min. In addition, the Peak entry in data set [1] (result in words) was “No peak time”.

For “glulisine [Sanofi's Apidra ® (glulisine)]”, in data set [1] (in vivo), the Onset was 20 to 30 min and the Peak is 0.5 to 1.5 h.

With Davalintide, in data set [4], the half-life result was “about 26 minutes”.

In the case of lispro [Lilly's Humalog ® (lispro)], in data set [1] (in vivo), the Duration is 3 to 5 h, the Onset is 15 to 30 min and the Peak is 0.5 to 1.5 h.

For “human amylin: 37-residue polypeptide hormone co-secreted with insulin from pancreatic β-cells (SEQ ID NO: 5) (KCNTATCATQRLANFLVHSSNNFGAILSSTNVGSNTY; disulfide 2-7; listed as Homo sapiens)”, in data set [5] (in humans), the half-life entry is given as “about 13 minutes”. Further, the half-life in serum result in data set [5] (serum) is recorded as “about 13 minutes”.

The term half-life denotes the time in which the quantity being followed falls by half.
